This is an account of results in EP3298022B1, “NOVEL ANNELATED PHENOXYACETAMIDES” (Boehringer Ingelheim International GmbH, priority 2015, dated 2017).

pIC50: −log10 of the molar value.

The target in one data set is T1, ENaC (Mus musculus, UniProt Q61180+Q9WU38+Q9WU39).
T1 construct: Mouse kidney M-1 cells were cultivated in DMEM containing 5% FCS and 5µM dexamethasone; endogenous in cells; host or cells: Mouse kidney M-1 cells (cortical collecting duct line), dexamethasone-treated, on transwell filters
T1 sequence (Q61180 1-699): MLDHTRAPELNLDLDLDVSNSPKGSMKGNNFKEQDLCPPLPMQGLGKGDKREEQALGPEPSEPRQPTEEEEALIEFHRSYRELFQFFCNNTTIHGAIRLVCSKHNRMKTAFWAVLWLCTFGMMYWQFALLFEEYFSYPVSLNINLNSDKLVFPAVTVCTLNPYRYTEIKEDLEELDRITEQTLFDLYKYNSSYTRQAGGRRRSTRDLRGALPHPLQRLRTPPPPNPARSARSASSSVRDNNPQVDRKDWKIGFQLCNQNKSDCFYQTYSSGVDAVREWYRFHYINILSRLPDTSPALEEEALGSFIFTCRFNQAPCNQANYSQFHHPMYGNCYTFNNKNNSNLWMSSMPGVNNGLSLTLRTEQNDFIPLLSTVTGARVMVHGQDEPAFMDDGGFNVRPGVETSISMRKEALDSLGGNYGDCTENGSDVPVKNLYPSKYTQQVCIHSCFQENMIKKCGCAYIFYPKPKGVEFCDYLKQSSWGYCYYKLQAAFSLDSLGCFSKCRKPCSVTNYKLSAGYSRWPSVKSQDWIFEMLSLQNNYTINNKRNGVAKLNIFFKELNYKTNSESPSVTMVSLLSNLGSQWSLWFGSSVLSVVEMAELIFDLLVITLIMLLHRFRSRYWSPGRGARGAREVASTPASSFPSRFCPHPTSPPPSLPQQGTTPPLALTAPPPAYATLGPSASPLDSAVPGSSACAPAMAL
T1 sequence (Q9WU38 1-638): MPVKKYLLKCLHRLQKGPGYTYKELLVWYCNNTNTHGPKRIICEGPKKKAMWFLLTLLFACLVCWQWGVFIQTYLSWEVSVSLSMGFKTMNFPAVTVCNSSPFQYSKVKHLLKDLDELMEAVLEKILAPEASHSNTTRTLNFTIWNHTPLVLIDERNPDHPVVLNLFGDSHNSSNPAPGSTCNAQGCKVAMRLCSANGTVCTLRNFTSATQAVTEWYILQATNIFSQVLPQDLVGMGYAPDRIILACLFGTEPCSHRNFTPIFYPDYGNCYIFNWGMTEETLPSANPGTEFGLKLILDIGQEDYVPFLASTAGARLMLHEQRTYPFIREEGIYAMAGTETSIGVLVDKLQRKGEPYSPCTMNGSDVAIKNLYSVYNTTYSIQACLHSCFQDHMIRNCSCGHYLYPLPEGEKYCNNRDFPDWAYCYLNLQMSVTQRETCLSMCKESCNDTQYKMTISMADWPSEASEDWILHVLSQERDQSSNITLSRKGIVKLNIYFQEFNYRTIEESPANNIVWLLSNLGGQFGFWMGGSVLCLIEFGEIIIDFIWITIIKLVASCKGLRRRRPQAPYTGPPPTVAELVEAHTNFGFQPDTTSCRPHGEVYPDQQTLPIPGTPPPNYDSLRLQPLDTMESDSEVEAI
T1 sequence (Q9WU39 1-655): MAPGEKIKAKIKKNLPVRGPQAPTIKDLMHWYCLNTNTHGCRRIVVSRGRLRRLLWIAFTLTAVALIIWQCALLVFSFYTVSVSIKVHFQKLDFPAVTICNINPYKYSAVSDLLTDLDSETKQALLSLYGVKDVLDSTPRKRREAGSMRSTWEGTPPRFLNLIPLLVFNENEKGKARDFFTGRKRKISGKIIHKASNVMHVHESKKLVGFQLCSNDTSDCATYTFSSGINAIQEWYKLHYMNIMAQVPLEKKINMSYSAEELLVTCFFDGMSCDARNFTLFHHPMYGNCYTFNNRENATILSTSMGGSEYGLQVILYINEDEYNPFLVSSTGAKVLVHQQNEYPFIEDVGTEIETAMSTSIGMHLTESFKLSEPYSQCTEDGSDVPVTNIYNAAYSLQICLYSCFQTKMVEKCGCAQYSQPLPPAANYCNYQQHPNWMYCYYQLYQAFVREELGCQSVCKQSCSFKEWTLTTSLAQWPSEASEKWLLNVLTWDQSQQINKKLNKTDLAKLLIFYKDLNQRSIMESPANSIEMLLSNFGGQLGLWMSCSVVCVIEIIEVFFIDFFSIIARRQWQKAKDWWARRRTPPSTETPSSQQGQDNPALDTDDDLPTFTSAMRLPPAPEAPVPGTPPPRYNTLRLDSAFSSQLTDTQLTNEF
As to the kind of experiment: Ussing Chamber assay (short circuit current, amiloride sensitive I_SC). In kind it is cell-based. The settings on record: Mouse kidney M-1 cells, apical administration, 37°C. Here is the method:
The IC50 values of the example compounds given above were determined in the Ussing Chamber assay.
Ussing Chamber: Mouse kidney M-1 cells were cultivated in DMEM containing 5% FCS and 5µM dexamethasone for 10 to 12 days on polyester transwell filters. Filters were inserted into a teflon-coated well-plate which fit into the ussing chamber system. Prior to measurement the medium of M-1 cells was replaced with Caco-2 transport buffer (Invitrogen, Germany). During measurements, the Ussing chamber temperature was kept at 37°C. Short circuit currents (I_sc) were measured in the voltage-clamp mode with the software package Lab View for data acquisition and analysis. The transepithelial electrical resistance (TEER) was determined by the application of voltage steps of ±5mV every 5 sec. Compounds were administered at a final concentration of 3µM or at increasing concentrations (1-3-10µM) to the apical solution. At the end of each experiment the amiloride sensitive I_SC was measured by adding 3µM amiloride to the apical compartment. Results are expressed as inhibition in percent of the amiloride effect or as IC50.

A further data set can be described thus: in vitro. In kind it is in vitro ADME. The settings on record: human, pH 7.4, 37°C, 10 µM compound; for Papp A→B: apical-to-basal; for Papp B→A: basal-to-apical. The protocol:
Permeability measurements across polarized, confluent CALU-3 cell monolayers grown on permeable filter supports are used to provide information on the potential of a compound to pass the lung epithelium. Apparent permeability coefficients (Papp) of the compounds across the CALU-3 cell monolayers are measured (pH 7.4, 37°C) in apical-to-basal (AB) and basal-to-apical (BA) transport direction.
CALU-3 cells (1-2 x 10^5 cells/1 cm^2 area) are seeded on filter inserts (Costar transwell polycarbonate filters, 0.4 µm pore size) and cultured (for 10 - 12 days DMEM) until tight monolayers are formed. Compounds of interest are dissolved in appropriate solvent (DMSO, 10 mM stock solution). Stock solutions are diluted with HTP-4 buffer (128.13 mM NaCl, 5.36 mM KCl, 1 mM MgSO4, 1.8 mM CaCl2, 4.17 mM NaHCO3, 1.19 mM Na2HPO4 x 7H2O, 0.41 mM NaH2PO4xH2O, 15 mM HEPES, 20 mM glucose, 0.25 % BSA, pH 7.4) to prepare the transport solutions (10 µM compound, final DMSO <= 0.5 %). The transport solution (TL) is applied to the apical or basolateral donor side for measuring A-B or B-A permeability (3 filter replicates), respectively. The receiver side contains the same buffer as the donor side. After 30 min of accommodation, samples are collected at the start t0 = 0 min and at the end of the experiment tn = 90 min from the donor and at 0, 30, 60, and 90 min also from the receiver chamber. Volume removed is replenished by HTP-4 buffer. The compound concentration in the samples is measured by HPLC-MS/MS or scintillation counting. The permeability coefficient (Papp) and efflux ratio are calculated according to: Papp [cm/s] = (concentration receiver [nM] * volume receiver [mL]/time interval [sec])*(1/filter area)*(1/donor concentration [nM]).

Usually pIC50 stands for −log10 of the IC50, conventionally taken in molar units. Lower therefore signals a large IC50. As a reminder, the Papp A→B is how fast a substance crosses the layer from the apical side. The term Papp B→A denotes how fast a substance crosses the layer from the basolateral side.

With `CCn1c(CNC(=O)c2nc(Cl)cnc2N)[n+](CC)c2ccc(OCC(=O)NCCCN)cc21` [Example 2.01], the pIC50 against ENaC is 9.00. Also, in the data set “in vitro”, the Papp A→B is 0.2 ×10⁻⁶ cm/s and the Papp B→A came out at 0.5 ×10⁻⁶ cm/s.

With `CC[n+]1c(CNC(=O)c2nc(Cl)cnc2N)n(CC2CCCO2)c2cc(OCC(=O)N3CC[S+]([O-])CC3)ccc21` (stereo not drawn) [Example 1.01], in the data set “in vitro”, the Papp A→B came to 0.8 ×10⁻⁶ cm/s and the Papp B→A came to 0.3 ×10⁻⁶ cm/s.

On to `CCOCCN1CCC(NC(=O)COc2ccc3c(c2)n(CC)c(CNC(=O)c2nc(Cl)cnc2N)[n+]3CC)CC1` [Example 2.07], for which the pIC50 against ENaC is 8.52.
